*1 amine or outer side, *2 acyl side, *3 side chain or, on linkers, in order; H or OH if unused. Where a SMILES comes first, the peptide text is derived from it. Side-chain parts run from the residue outwards. [ ]: non-standard residue; d: D form. The star is where a group is joined. C20 diacid = O=C(O)CCCCCCCCCCCCCCCCCCC(=O)*; C18 diacid = O=C(O)CCCCCCCCCCCCCCCCC(=O)*; αMePhe(2-F) = C[C@](N)(Cc1ccccc1F)C(=O)O; γGlu = O=C(O)[C@H](CCC(=O)[*:2])N[*:1]; αMeF = C[C@](N)(Cc1ccccc1)C(=O)O; 4Pal = N[C@@H](Cc1ccncc1)C(=O)O; AEEA = NCCOCCOCC(=O)O; Aib = CC(C)(N)C(=O)O
Legend:
Experiment in all cases: cAMP functional assay (HTRF) in HEK293 cells in presence of 0.1% casein
Format in all cases: cell-based
[1] = biological target: T1, human GLP-1 receptor (GLP-1R) (Homo sapiens, UniProt P43220); settings: HEK293 cells expressing human GLP-1R, geometric mean, read-out: hGLP1R cAMP Rel EC50 nM (SEM, n)
T1 construct: expressed in transfected cells; host or cells: HEK293
Description: (§1) Each receptor over-expressing cell line (20 μl) is treated with the test peptide in DMEM (Gibco Cat #31053) supplemented with 0.1% Casein (Sigma Cat #C4765), 250 μM IBMX, 1× GlutaMAX™ (Gibco Cat #35050), and 20 mM HEPES (HyClone Cat #SH30237.01) in a 20 μl assay volume. After incubating for 60 minutes at room temperature, the resulting increase in intracellular CAMP is quantitatively determined using the CisBio CAMP Dynamic 2 HTRF Assay Kit (62AM4PEJ). The Lysis buffer containing cAMP-d2 conjugate (20 μl) and the antibody anti-cAMP-Eu3+-Cryptate (20 μl) are then added to determine the cAMP level. After incubating 60 minutes at room temperature, HTRF signal is detected with an Envision 2104 plate reader (PerkinElmer). Fluorescent emission at 620 nm and at 665 nm is measured and the ratio between 620 nm and at 665 nm is calculated and then are converted to nM cAMP per well using a cAMP standard curve. Dose response curves of compounds are plotted as the percentage of stimulation normalized to minimum (buffer only) and maximum (maximum concentration of each control ligand) values and analyzed using a four parameter non-linear regression fit with a variable slope (Genedata Screener 13). EC50 is the concentration of compound causing half-maximal simulation in a dose response curve. A relative EC50 value is derived by non-linear regression analysis using the percent maximal response vs, the concentration of peptide added, fitted to a four-parameter logistic equation.
(§2) Intracellular cAMP levels are determined by extrapolation using a standard curve. Dose response curves of compounds are plotted as the percentage of stimulation normalized to minimum (buffer only) and maximum (maximum concentration of each control ligand) values and analyzed using a four-parameter non-linear regression fit with a variable slope (Genedata Screener 13). EC50 is the concentration of compound causing half-maximal simulation in a dose response curve. Each relative EC50 value for the geometric mean calculation is determined from a curve fitting.
(§3) Concentration response curves of compounds are plotted as the percentage of stimulation normalized to minimum (buffer only) and maximum (maximum concentration of each control ligand) values and analyzed using a four-parameter non-linear regression fit with a variable slope (Genedata Screener 13). EC50 is the concentration of compound causing half-maximal simulation in a dose response curve. […] The standard error of the mean is reported:
(§4) [formula] • The log transform accounts for the EC50 values falling on a multiplicative, rather than an arithmetic scale.
(§5) For illustration, as shown by Example 1, the peptide is tested in 8 runs of the hGIPR CAMP assay. […] Accordingly, each Example will use the geometric mean of those values to normalize the Example assay runs.

[2] = biological target: T2, human glucagon receptor (GcgR) (Homo sapiens, UniProt P47871); settings: HEK293 cells expressing human GcgR, geometric mean, read-out: hGcgR cAMP Rel EC50 nM (SEM, n)
T2 construct: expressed in transfected cells; host or cells: HEK293
Description: as §1, §2, §3, §4, §5

[3] = biological target: T3, human glucose-dependent insulinotropic peptide receptor (GIPR) (Homo sapiens, UniProt P48546); settings: HEK293 cells expressing human GIPR, geometric mean, read-out: hGIPR cAMP Rel EC50 nM (SEM, n)
T3 construct: expressed in transfected cells; host or cells: HEK293
T3 sequence (P48546 22-466): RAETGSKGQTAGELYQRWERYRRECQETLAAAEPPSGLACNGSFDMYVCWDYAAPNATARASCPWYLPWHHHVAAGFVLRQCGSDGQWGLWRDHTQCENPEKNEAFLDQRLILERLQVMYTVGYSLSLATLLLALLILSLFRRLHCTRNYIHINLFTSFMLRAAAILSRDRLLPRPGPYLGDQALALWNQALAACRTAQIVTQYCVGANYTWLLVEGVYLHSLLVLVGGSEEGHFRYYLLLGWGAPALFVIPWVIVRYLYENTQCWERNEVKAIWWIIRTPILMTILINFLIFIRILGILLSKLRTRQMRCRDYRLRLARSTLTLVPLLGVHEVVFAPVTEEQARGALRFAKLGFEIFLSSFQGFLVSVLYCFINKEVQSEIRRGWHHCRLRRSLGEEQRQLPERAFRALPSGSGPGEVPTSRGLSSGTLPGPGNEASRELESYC
Description: as §1, §2, §3, §4, §5

T2 sequence (P47871 26-477): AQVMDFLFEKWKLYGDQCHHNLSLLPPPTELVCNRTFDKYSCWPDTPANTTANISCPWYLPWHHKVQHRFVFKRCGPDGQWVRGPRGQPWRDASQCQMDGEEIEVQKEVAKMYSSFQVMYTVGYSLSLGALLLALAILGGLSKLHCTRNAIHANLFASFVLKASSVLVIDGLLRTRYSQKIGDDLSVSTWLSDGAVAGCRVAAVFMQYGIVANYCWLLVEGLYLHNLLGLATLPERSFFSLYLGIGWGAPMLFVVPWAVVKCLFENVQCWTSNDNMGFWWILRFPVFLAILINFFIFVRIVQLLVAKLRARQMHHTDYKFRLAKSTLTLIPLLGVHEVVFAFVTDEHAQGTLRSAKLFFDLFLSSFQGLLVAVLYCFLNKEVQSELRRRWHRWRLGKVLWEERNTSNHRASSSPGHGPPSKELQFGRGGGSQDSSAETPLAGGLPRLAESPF
T1 sequence (P43220 24-463): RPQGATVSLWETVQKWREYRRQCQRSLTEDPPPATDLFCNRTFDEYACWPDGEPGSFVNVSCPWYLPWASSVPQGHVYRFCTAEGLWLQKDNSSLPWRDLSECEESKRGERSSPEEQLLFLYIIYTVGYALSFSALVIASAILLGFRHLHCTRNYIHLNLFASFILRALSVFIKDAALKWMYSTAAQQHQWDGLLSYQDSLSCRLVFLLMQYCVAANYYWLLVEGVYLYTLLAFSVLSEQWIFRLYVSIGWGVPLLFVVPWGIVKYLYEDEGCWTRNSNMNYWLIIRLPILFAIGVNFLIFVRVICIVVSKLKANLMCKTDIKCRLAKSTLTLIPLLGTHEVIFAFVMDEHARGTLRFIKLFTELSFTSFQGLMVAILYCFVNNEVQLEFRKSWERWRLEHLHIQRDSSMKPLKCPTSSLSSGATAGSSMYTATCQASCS

| SMILES | EC50 [1] | EC50 [2] | EC50 [3] |
| --- | --- | --- | --- |
| CC[C@H](C)[C@H](NC(=O)[C@H](CO)NC(=O)[C@H](Cc1ccc(O)cc1)NC(=O)[C@H](CC(=O)O)NC(=O)[C@H](CO)NC(=O)[C@@H](NC(=O)[C@H](Cc1ccccc1)NC(=O)[C@@H](NC(=O)CNC(=O)[C@H](CCC(=O)O)NC(=O)C(C)(C)NC(=O)[C@@H](N)Cc1ccc(O)cc1)[C@@H](C)O)[C@@H](C)CC)C(=O)N[C@@H](C)C(=O)N[C@@H](CC(C)C)C(=O)N[C@@H](CC(=O)O)C(=O)N[C@@H](CCCCN)C(=O)N[C@H](C(=O)N[C@@H](Cc1c[nH]cn1)C(=O)N[C@@H](CCC(N)=O)C(=O)NC(C)(C)C(=O)N[C@@H](CCC(=O)O)C(=O)N[C@@H](Cc1ccccc1)C(=O)N[C@H](C(=O)N[C@@H](CC(N)=O)C(=O)N[C@@H](Cc1ccc(O)cc1)C(=O)N[C@@H](CCCCNC(=O)COCCOCCNC(=O)COCCOCCNC(=O)CC[C@H](NC(=O)CCCCCCCCCCCCCCCCCCC(=O)O)C(=O)O)C(=O)N[C@@H](CC(C)C)C(=O)N[C@@H](C)C(=O)NCC(=O)NCC(=O)N1CCC[C@H]1C(=O)N[C@@H](CO)C(=O)N[C@@H](CO)C(=O)NCC(=O)N[C@@H](C)C(=O)N1CCC[C@H]1C(=O)N1CCC[C@H]1C(=O)N1CCC[C@H]1C(=O)N[C@@H](CO)C(N)=O)C(C)C)[C@@H](C)CC [Example 96] (H-Y[Aib]EGTFISDYSIALDKIHQ[Aib]EFVNYK([AEEA-AEEA-γGlu-C20 diacid])LAGGPSSGAPPPS-NH2) | > 5000 nM | > 5000 nM | 0.0251 nM |
| CC[C@H](C)[C@H](NC(=O)[C@H](CO)NC(=O)[C@H](Cc1ccc(O)cc1)NC(=O)[C@H](CC(=O)O)NC(=O)[C@H](CO)NC(=O)[C@@H](NC(=O)[C@](C)(Cc1ccccc1)NC(=O)[C@@H](NC(=O)CNC(=O)[C@H](CCC(=O)O)NC(=O)C(C)(C)NC(=O)[C@@H](N)Cc1ccc(O)cc1)[C@@H](C)O)[C@@H](C)CC)C(=O)N[C@@H](C)C(=O)N[C@@H](CC(C)C)C(=O)N[C@@H](CC(=O)O)C(=O)N[C@@H](CCCCN)C(=O)N[C@H](C(=O)N[C@@H](Cc1c[nH]cn1)C(=O)N[C@@H](CCC(N)=O)C(=O)NC(C)(C)C(=O)N[C@@H](CCC(=O)O)C(=O)N[C@@H](Cc1ccccc1)C(=O)N[C@H](C(=O)N[C@@H](CC(N)=O)C(=O)N[C@@H](Cc1ccc(O)cc1)C(=O)N[C@@H](CCCCNC(=O)COCCOCCNC(=O)COCCOCCNC(=O)CC[C@H](NC(=O)CCCCCCCCCCCCCCCCCCC(=O)O)C(=O)O)C(=O)N[C@@H](CC(C)C)C(=O)N[C@@H](C)C(=O)NCC(=O)NCC(=O)N1CCC[C@H]1C(=O)N[C@@H](CO)C(=O)N[C@@H](CO)C(=O)NCC(=O)N[C@@H](C)C(=O)N1CCC[C@H]1C(=O)N1CCC[C@H]1C(=O)N1CCC[C@H]1C(=O)N[C@@H](CO)C(N)=O)C(C)C)[C@@H](C)CC [Example 97] (H-Y[Aib]EGT[αMeF]ISDYSIALDKIHQ[Aib]EFVNYK([AEEA-AEEA-γGlu-C20 diacid])LAGGPSSGAPPPS-NH2) | 2510 nM | > 5000 nM | 0.009 nM |
| CC[C@H](C)[C@H](NC(=O)[C@H](CO)NC(=O)[C@H](Cc1ccc(O)cc1)NC(=O)[C@H](CC(=O)O)NC(=O)[C@H](CO)NC(=O)[C@@H](NC(=O)[C@](C)(Cc1ccccc1)NC(=O)[C@@H](NC(=O)CNC(=O)[C@H](CCC(=O)O)NC(=O)C(C)(C)NC(=O)[C@@H](N)Cc1ccc(O)cc1)[C@@H](C)O)[C@@H](C)CC)C(=O)N[C@@H](C)C(=O)N[C@@H](CC(C)C)C(=O)N[C@@H](CC(=O)O)C(=O)N[C@@H](CCCCN)C(=O)N[C@@H](CCCCNC(=O)COCCOCCNC(=O)COCCOCCNC(=O)CC[C@H](NC(=O)CCCCCCCCCCCCCCCCC(=O)O)C(=O)O)C(=O)N[C@@H](Cc1c[nH]cn1)C(=O)N[C@@H](CCC(N)=O)C(=O)NC(C)(C)C(=O)N[C@@H](CC(=O)O)C(=O)N[C@@H](Cc1ccccc1)C(=O)N[C@H](C(=O)N[C@@H](CCC(=O)O)C(=O)N[C@@H](Cc1ccncc1)C(=O)N[C@@H](CC(C)C)C(=O)N[C@@H](CC(C)C)C(=O)N[C@@H](C)C(=O)NCC(=O)NCC(=O)N1CCC[C@H]1C(=O)N[C@@H](CO)C(=O)N[C@@H](CO)C(=O)NCC(=O)N[C@@H](C)C(=O)N1CCC[C@H]1C(=O)N1CCC[C@H]1C(=O)N1CCC[C@H]1C(=O)N[C@@H](CO)C(N)=O)C(C)C [Example 23] (H-Y[Aib]EGT[αMeF]ISDYSIALDKK([AEEA-AEEA-γGlu-C18 diacid])HQ[Aib]DFVE[4Pal]LLAGGPSSGAPPPS-NH2) | 206 nM | > 5000 nM | 0.0192 nM |
| CC[C@H](C)[C@H](NC(=O)[C@H](CO)NC(=O)[C@H](Cc1ccc(O)cc1)NC(=O)[C@H](CC(=O)O)NC(=O)[C@H](CO)NC(=O)[C@@H](NC(=O)[C@](C)(Cc1ccccc1F)NC(=O)[C@@H](NC(=O)CNC(=O)[C@H](CCC(=O)O)NC(=O)C(C)(C)NC(=O)[C@@H](N)Cc1ccc(O)cc1)[C@@H](C)O)[C@@H](C)CC)C(=O)N[C@@H](CC(C)C)C(=O)N[C@@H](CC(C)C)C(=O)N[C@@H](CC(=O)O)C(=O)N[C@@H](CCCCN)C(=O)N[C@H](C(=O)N[C@@H](Cc1c[nH]cn1)C(=O)N[C@@H](CCC(N)=O)C(=O)NC(C)(C)C(=O)N[C@@H](CC(=O)O)C(=O)N[C@@H](Cc1ccccc1)C(=O)N[C@H](C(=O)N[C@@H](CCC(=O)O)C(=O)N[C@@H](Cc1ccncc1)C(=O)N[C@@H](CCCCNC(=O)COCCOCCNC(=O)COCCOCCNC(=O)CC[C@H](NC(=O)CCCCCCCCCCCCCCCCCCC(=O)O)C(=O)O)C(=O)N[C@@H](CC(C)C)C(=O)N[C@@H](CCC(=O)O)C(=O)N[C@@H](C)C(=O)NCC(=O)N1CCC[C@H]1C(=O)N[C@@H](CO)C(=O)N[C@@H](CO)C(=O)NCC(=O)N[C@@H](C)C(=O)N1CCC[C@H]1C(=O)N1CCC[C@H]1C(=O)N1CCC[C@H]1C(=O)N[C@@H](CO)C(N)=O)C(C)C)[C@@H](C)CC [Example 120] (H-Y[Aib]EGT[αMePhe(2-F)]ISDYSILLDKIHQ[Aib]DFVE[4Pal]K([AEEA-AEEA-γGlu-C20 diacid])LEAGPSSGAPPPS-NH2) | > 5000 nM | > 5000 nM | 0.0228 nM |
| CC[C@H](C)[C@H](NC(=O)[C@H](CO)NC(=O)[C@H](Cc1ccc(O)cc1)NC(=O)[C@H](CC(=O)O)NC(=O)[C@H](CO)NC(=O)[C@@H](NC(=O)[C@H](Cc1ccccc1)NC(=O)[C@@H](NC(=O)CNC(=O)[C@H](CCC(=O)O)NC(=O)[C@@H](C)NC(=O)[C@@H](N)Cc1ccc(O)cc1)[C@@H](C)O)[C@@H](C)CC)C(=O)N[C@@H](CC(C)C)C(=O)N[C@@H](CC(C)C)C(=O)N[C@@H](CC(=O)O)C(=O)N[C@@H](CCCCN)C(=O)N[C@@H](CCCCNC(=O)COCCOCCNC(=O)COCCOCCNC(=O)CC[C@H](NC(=O)CCCCCCCCCCCCCCCCC(=O)O)C(=O)O)C(=O)N[C@@H](C)C(=O)N[C@@H](CCC(N)=O)C(=O)NC(C)(C)C(=O)N[C@@H](CCC(=O)O)C(=O)N[C@@H](Cc1ccccc1)C(=O)N[C@H](C(=O)N[C@@H](CC(N)=O)C(=O)N[C@@H](Cc1c[nH]c2ccccc12)C(=O)N[C@@H](CC(C)C)C(=O)N[C@@H](CC(C)C)C(=O)N[C@@H](CCC(=O)O)C(=O)NCC(=O)NCC(=O)N1CCC[C@H]1C(=O)N[C@@H](CO)C(=O)N[C@@H](CO)C(=O)NCC(=O)N[C@@H](C)C(=O)N1CCC[C@H]1C(=O)N1CCC[C@H]1C(=O)N1CCC[C@H]1C(=O)N[C@@H](CO)C(N)=O)C(C)C [Example 28] (H-Y[dA]EGTFISDYSILLDKK([AEEA-AEEA-γGlu-C18 diacid])AQ[Aib]EFVNWLLEGGPSSGAPPPS-NH2) | > 5000 nM | > 5000 nM | 0.0118 nM |
